Each structure is given as a SMILES string. pIC50: −log10 of the molar value.

As a reminder, the pIC50 is the negative decadic logarithm of the IC50, by convention in mol/L.

The target in one test is Proto-oncogene tyrosine-protein kinase receptor Ret (Homo sapiens, UniProt P07949).
Proto-oncogene tyrosine-protein kinase receptor Ret, sequence (P07949 whole entry): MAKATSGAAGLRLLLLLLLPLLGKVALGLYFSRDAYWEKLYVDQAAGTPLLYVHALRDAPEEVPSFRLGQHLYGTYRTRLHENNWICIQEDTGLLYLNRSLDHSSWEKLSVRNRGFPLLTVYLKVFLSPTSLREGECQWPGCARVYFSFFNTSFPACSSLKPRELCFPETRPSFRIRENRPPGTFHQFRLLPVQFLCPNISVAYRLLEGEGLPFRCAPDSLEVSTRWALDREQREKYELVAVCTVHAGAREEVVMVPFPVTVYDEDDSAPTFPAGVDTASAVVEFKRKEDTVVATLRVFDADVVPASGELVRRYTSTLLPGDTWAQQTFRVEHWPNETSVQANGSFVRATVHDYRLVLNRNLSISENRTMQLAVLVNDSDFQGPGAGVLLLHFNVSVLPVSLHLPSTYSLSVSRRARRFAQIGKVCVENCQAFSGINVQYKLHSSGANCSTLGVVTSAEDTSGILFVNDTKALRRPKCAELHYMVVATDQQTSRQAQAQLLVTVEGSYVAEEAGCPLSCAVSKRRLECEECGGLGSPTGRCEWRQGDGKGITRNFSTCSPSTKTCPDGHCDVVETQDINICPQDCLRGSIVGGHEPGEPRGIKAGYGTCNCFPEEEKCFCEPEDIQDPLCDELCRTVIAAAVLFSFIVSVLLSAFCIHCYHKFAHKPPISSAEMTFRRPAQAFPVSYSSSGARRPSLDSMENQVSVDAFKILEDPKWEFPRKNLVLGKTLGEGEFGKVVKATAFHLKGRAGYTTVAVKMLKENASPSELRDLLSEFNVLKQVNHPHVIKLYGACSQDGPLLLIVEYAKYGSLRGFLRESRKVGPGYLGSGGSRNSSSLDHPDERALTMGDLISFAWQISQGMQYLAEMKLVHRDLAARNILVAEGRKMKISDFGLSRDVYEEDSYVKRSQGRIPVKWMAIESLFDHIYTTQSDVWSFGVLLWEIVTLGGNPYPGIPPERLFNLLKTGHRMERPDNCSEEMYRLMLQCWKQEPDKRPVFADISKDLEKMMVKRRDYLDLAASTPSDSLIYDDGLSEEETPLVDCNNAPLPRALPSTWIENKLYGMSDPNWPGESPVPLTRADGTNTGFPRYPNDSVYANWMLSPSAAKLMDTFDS
Conditions: not given
`CN1CCN(Cc2ccc(NC(=O)c3ccc(Cl)c(-c4noc(-c5cncc(-c6cnn(C)c6)c5)n4)c3)cc2C(F)(F)F)CC1` gave a pIC50 of 8.74.

In the case of `CN1CCN(Cc2ccc(NC(=O)c3ccc(Cl)c(-c4noc(-c5ccncc5)n4)c3)cc2C(F)(F)F)CC1`, the pIC50 is 7.58.

`CN1CCN(Cc2ccc(NC(=O)c3ccc(Cl)c(-c4nnc(-c5cccnc5)o4)c3)cc2C(F)(F)F)CC1` gave a pIC50 of 6.86.

For the compound `CN1CCN(Cc2ccc(NC(=O)c3ccc(Cl)c(C#Cc4cccnc4)c3)cc2C(F)(F)F)CC1`, the negative logarithm of the IC50 (pIC50) is 8.60.

For the compound `CN1CCN(Cc2ccc(NC(=O)c3ccc(Cl)c(-c4nc(-c5cccnc5)co4)c3)cc2C(F)(F)F)CC1`, the pIC50 was 7.67.

In the case of `CN1CCN(Cc2ccc(NC(=O)c3cccc(-c4noc(-c5cccnc5)n4)c3)cc2C(F)(F)F)CC1`, the pIC50 is 7.75.

Regarding `CN1CCN(Cc2ccc(NC(=O)c3ccc(Cl)c(-c4noc(-c5cncc(N6CCOCC6)c5)n4)c3)cc2C(F)(F)F)CC1`, the pIC50 is 8.68.

For `CN1CCN(Cc2ccc(NC(=O)c3ccc(Cl)c(-c4cnc(-c5cccnc5)o4)c3)cc2C(F)(F)F)CC1`, the pIC50 was 7.71.

`COc1ccc(-c2nc(-c3cc(C(=O)Nc4ccc(CN5CCN(C)CC5)c(C(F)(F)F)c4)ccc3Cl)no2)cn1` showed a pIC50 of 6.47.

The compound `CN1CCN(Cc2ccc(NC(=O)c3ccc(Cl)c(-c4noc(-c5cccnc5)n4)c3)cc2C(F)(F)F)CC1` showed a pIC50 of 8.14.

Turning to `Cc1ccc(C(=O)Nc2ccc(CN3CCN(C)CC3)c(C(F)(F)F)c2)cc1-c1noc(-c2cccnc2)n1`, the pIC50 is 6.97.

In turn, `CN1CCN(Cc2ccc(NC(=O)c3ccc(Cl)c(-c4nc(-c5cccnc5)no4)c3)cc2C(F)(F)F)CC1` gave a pIC50 of 7.91.

Compound `COCCOc1cncc(-c2nc(-c3cc(C(=O)Nc4ccc(CN5CCN(C)CC5)c(C(F)(F)F)c4)ccc3Cl)no2)c1` showed a pIC50 of 7.94.

Test system in another test: not listed separately
Description: Inhibition of CCDC6/RET V804M mutant (unknown origin) expressed in mouse BaF3 cells assessed as reduction in cell proliferation after 72 hrs by MTT assay. The format is cell-based. The following applies: BaF3, 72 h. On the technique in general: Formazan colour is commonly taken as a measure of viable cells.
As to `CN1CCN(Cc2ccc(NC(=O)c3ccc(Cl)c(-c4noc(-c5cncc(-c6cnn(C)c6)c5)n4)c3)cc2C(F)(F)F)CC1`, the pIC50 was 6.35.

`Cc1ccc(C(=O)Nc2ccc(CN3CCN(C)CC3)c(C(F)(F)F)c2)cc1C#Cc1cnc2cccnn12` [PONATINIB]: the pIC50 is 6.87.

The values above are taken from ChEMBL document CHEMBL3867468, “Discovery of 4-chloro-3-(5-(pyridin-3-yl)-1,2,4-oxadiazole-3-yl)benzamides as novel RET kinase inhibitors” (Bioorg Med Chem Lett, 2016).
